# “And” between values parts separate entries of the source, which are not always exact repeats. Identical values can stand only once. Like-named read-outs stand apart in the source and are kept apart here.
# What was measured:
# [1] = system: albino mouse; test: Anesthetic effect in male albino mice, righting reflex as index; conditions: for efficacy in inducing anesthesia based on time required to regain the righting reflex (conclusion): albino mice; for dose response relation (statistical analysis): low, intermediate, high dose
# Text: However the doses of low, intermediate and high for different formulations and reference control were different.
# The different doses for each formulation and reference control were selected based on the recommendation of Sponsor. All the doses were expressed as propofol molar equivalents.
# [2] = Solubility of propofol and its amino acid esters in water; conditions: for solubility: water, solubility in water
# Text: For example, assume propofol is the drug and lysine is the amino acid.
# [3] = system: albino mice (Swiss strain); test: 14 day repeated dose toxicity study, intravenous route, propofol esters; conditions: for feed intake / behavior, feed consumption, organ weights, histopathology of different organs / reduced body weight gain compared to vehicle control: 14 days; for behavior, feed consumption, organ weights, histopathology of different organs: vs reference group; for animals exhibiting clinical symptoms of toxicity / body weight gain: IV daily 14 days; for body weight gain: compared to vehicle control
# Procedure: by conducting a 14 day repeated dose toxicity study through intravenous route using albino mice as test system.
# Propofol and its derivatives above were administered to albino mice (Swiss strain), through intravenous route daily for a period of 14 days using sterile sodium chloride solution as vehicle. The study was conducted at one dose level only along with a vehicle control group as per the recommendation of the Sponsor.
# The doses were selected as per the recommendation of the Sponsor. The test doses are expressed as Propofol molar equivalents.
# [4] = system: albino rats (Wistar strain); conditions: rat, in vivo;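 note: one dose level only, compared with a vehicle control group, with doses stated as Aspirin molar equivalents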
# Procedure: The study was conducted at one dose level only along with a vehicle control group as per the recommendation of the Sponsor. The test doses are expressed as Aspirin molar equivalents.
# [5] = system: rats; test: Clotting time in rats, different date, time intervals and doses (Table 24); format: in vivo, rat
# Text: The following additional data were obtained, when the same drugs were compared in rats on a different date with different time intervals and doses: […]
# [6] = system: albino rats; test: Blood clotting time in albino rats, one hour after dosing; format: in vivo, rat
# Procedure: The data on the mean clotting time (MCT) of the animals of low, intermediate and high dose groups of different formulations, vehicle control and positive control groups estimated one hour after dosing were presented below (Table 19):
# Aspirin served as positive control. The study was conducted at three dose levels with the new formulations and positive control along with a vehicle control group.
# The doses for the main study were selected based on the dose range finding experiments with acetylsalicylic acid. All the doses were expressed as aspirin molar equivalents. The doses used are presented below.
# [7] = system: human volunteers; test: Blood clotting time studies in human volunteers; format: in vivo; conditions: for AVERAGE CLOTTING TIME: human volunteers, listed as ASA-T ESTER
# Procedure: Several blood clotting time studies were performed on a limited number of human volunteers with Acetylsalicylic Acid-L-Threonine Ester. […] This plot was derived from the data in Table 29. The two Acetylsalicylic Acid-L-Threonine Ester blocks shown above correspond to two separate volunteers who took the test drug over a period of 5 days. The third volunteer took Bayer Aspirin for 5 days. As per FIG. 2, increase in clotting time occurred on the very first day of drug intake, and remained higher than Bayer ASA during the subsequent administrations.
# [8] = Plasma aspirin and salicylic acid in human volunteers; format: in vivo
# Text: This is shown in FIG. 12 which depicts the concentration of salicyclic Acid in human plasma with respect to four volunteers who took Acetylsalicyclic Acid-L-Threonine Ester and two volunteers who took Aspirin.
# [9] = system: fasted male albino rats (Wistar strain); test: Gastric mucosa irritation of acetylsalicylic acid esters; format: in vivo, rat; conditions: two doses, 100 and 200 mg/kg
# Procedure: Aspirin served as a reference control. […] All the doses were expressed as aspirin molar equivalents. The doses used as well as the molar equivalents are presented below. The rats were fasted for a period of 18 to 22 hours before dosing. The test item was administered as a single dose by gavage. Three hours after drug administration, the animals were killed humanely by CO2 gas inhalation. The stomach was dissected out and observed for • the quantity of mucous exudate, • degree of hyperemia and thickening of stomach wall, • hemorrhagic spots (focal or diffuse), nature of hemorrhages (petechial or ecchymotic) along with the size and • perforations
# [10] = system: Male albino rats; test: Blood clotting time in albino rats, 2 hours after dosing; format: in vivo, rat
# Procedure: Aspirin served as positive control. Male albino rats were exposed to aspirin and to 3 new formulations of amino acid derivatives of aspirin derivatives at one dose level of 20 mg/kg body weight. […]. The doses were expressed as aspirin molar equivalents.
# The efficacy in terms of time required for the blood clotting time at the dose level of 20 mg/kg body weight for different formulations of amino acid derivatives of aspirin and aspirin (positive control) are presented below:
# The data on the mean clotting time (MCT) of the animals, estimated 2 hours (±10 minutes) after dosing, at the dose level of 20 mg/kg body weight for the formulations of aspirin derivatives, vehicle control and positive control are presented below
# [11] = cited from earlier work; for solubility in deionized water: deionized water at 25° C.
# [12] = system: laboratory mice
# Procedure: Percent animal body weight loss, stool consistency and occult blood at the end of the study will be taken into consideration to calculate Disease Activity Index (“DAI”) of each animal. The following scoring system outlined in Table 30 was for the percent body weight loss, stool consistency and occult blood:
# The scores for each parameter for each mouse at the end of study are added together and divided by three (number of observations) to determine DAI. The mean group DAI is the determined. A score of 3 was assigned for any animal that died during the testing.
# In this study, DSS administration is coupled with administration of either test or reference drug from day 1.
# [13] = system: laboratory mice; test: DSS induced ulcerative colitis in mice, disease treatment study (Disease Activity Index); format: in vivo, mouse
# Text: The mean group DAI is the determined.
# Much more dramatic results were obtained when the mice were initially treated with DSS to induce colitis. Once clear symptoms of colitis were seen, DSS was replaced by drinking water, and treatment started with test and reference drugs, including vehicle control. All results are mean of 10 mice.
compound,measurement,setting,value
"CC(C)c1cccc(C(C)C)c1OC(=O)C(N)CCCCN.Cl.Cl (stereo in doubt) [Propofol Lysine Ester, 2(S),6-Diamino-hexanoic acid 2,6-diisopropyl-phenyl ester, dihydrochloride]","anesthetic effect, relative efficacy",[1]; Intermediate Dose,did not show any anesthetic effect
same,"anesthetic effect, relative efficacy",[1]; Low Dose,did not show any anesthetic effect
same,efficacy in inducing anesthesia based on time required to regain the righting reflex (conclusion),[1],relatively better efficacy
same,dose response relation (statistical analysis),[1],significant improvement at 5% significance level in the relative efficacy for the high dose when compared to low dose group
same,solubility in water,[2],> 250 mg/mL
"CC(C)c1cccc(C(C)C)c1OC(=O)C1CCCN1.Cl (stereo in doubt) [Propofol Proline Ester, Pyrrolidine-2(S)-carboxylic acid 2,6-diisopropyl-phenyl ester, hydrochloride]",feed intake,[3],normal and comparable to that of vehicle control group
same,"behavior, feed consumption, organ weights, histopathology of different organs",[3],normal and comparable to that of the animals of the reference group
same,animals exhibiting clinical symptoms of toxicity,[3],None of the animals
same,body weight gain,[3],normal and comparable to that of vehicle control group of animals
same,MCV vs Propofol injection (RC) [p<0.05],[3]; female animals,significantly decreased
same,level of urea vs Propofol injection (RC) [p<0.05],[3]; female animals,significantly decreased
same,granulocytes vs Propofol injection (RC) [p<0.05],[3]; male animals,significantly decreased
same,level of sodium vs Propofol injection (RC) [p<0.05],[3]; male animals,significantly increased
same,lymphocytes counts vs Propofol injection (RC) [p<0.05],[3]; male animals,significantly increased
same,"anesthetic effect, relative efficacy",[1]; Intermediate Dose,more effective
same,dose response relation (statistical analysis),[1],No significant dose—response effects were evident
same,solubility,[2],> 100 mg/mL
"CC(=O)Oc1ccccc1C(=O)O[C@H](C)[C@H](N)C(=O)O [2-O-Acetylsalicylic Acid (2S,3R)-(−)-threonine Ester]","Adrenals (Abs) organ weight, Significance[P < 0.05]",[4],Decrease (Male)
same,"Alkaline Phosphatase, Significance [P < 0.05]",[4],Increase (Female)
same,"All Blood Parameters, Significance [P < 0.05]",[4],None
same,"All Clinical Chemistry, Significance [P < 0.05]",[4],None(but two
same,"Blood Glucose, Significance [P < 0.05]",[4],Decrease (Female)
same,"Cholesterol, Significance [P < 0.05]",[4],Increase (Male)
same,"Creatinine, Significance [P < 0.05]",[4],Decrease (Male)
same,Food intake,[4],normal and comparable to the animals of vehicle control group
same,"Kidney (Abs) organ weight, Significance[P < 0.05]",[4],Decrease (Male)
same,"Kidney (Rel) organ weight, Significance[P < 0.05]",[4],Increase (Male)
same,"Platelet Count, Significance [P < 0.05]",[4],Increase (Male)
same,"Spleen (Abs) organ weight, Significance[P < 0.05]",[4],Decrease (Male)
same,"Total Protein, Significance [P < 0.05]",[4],Increase (Female)
same,histological sections of organs,[4],did not show any histopathological changes
same,Clotting Time,[5]; 10 mg/kg 1 hr,7.4 min
same,Clotting Time,[5]; 10 mg/kg 24 hr,3.6 min
same,Clotting Time,[5]; 20 mg/kg 2 hr,5.3 min
same,response in the rat blood clotting time,[5]; compared against the various amino acid esters,consistently a better response
same,"Mean Clotting Time (±S.D.), Low Dose","[6]; 1.0 mg/kg as aspirin, one hour after dosing",5.2 ± 1.14 min
same,"Mean Clotting Time (±S.D.), Intermediate Dose","[6]; 4.0 mg/kg as aspirin, one hour after dosing",5.6 ± 0.84 min
same,"Mean Clotting Time (±S.D.), High Dose","[6]; 10.0 mg/kg as aspirin, one hour after dosing",7.4 ± 0.97 min
same,effectiveness with respect to clotting time,[6]; one hour after administration,as effective as acetylsalicylic acid
same,statistical analysis of mean clotting time vs vehicle control,[6]; one hour after dosing,significant improvement at 5% significance level in the efficacy for the high dose
same,AVERAGE CLOTTING TIME,[7]; 81 mg,5.2 min and 5.1 min
same,AVERAGE CLOTTING TIME,[7]; 325 mg,6.2 min and 6.0 min
same,effectiveness on clotting time,"[7]; low dose of 80 mg, with baseline correction",as effective as 325 mg Bayer Aspirin
same,"Salicylic Acid in human plasma (profile, words)",[8],prolonged and sustained formation and disappearance of Salicylic acid
same,Aspirin in blood / plasma,"[8]; 325 mg dose, oral",No Aspirin was found in blood
same,esters inducing evidence of irritation of gastric mucosa,[9],none
same,Mean Clotting Time (± S.D.),"[10]; 20 mg/kg as aspirin, 2 hours (±10 minutes) after dosing",5.3 ± 1.06 min
same,relative efficacy on clotting time,[10]; 2 hours after dosing,relatively better efficacy than the other two formulations
same,mean blood clotting time with respect to positive control (statistics),[10]; after two hours,no significant difference at 5% significance level
"CC(C)c1cccc(C(C)C)c1OC(=O)CN.Cl [Propofol Glycine Ester, Amino-acetic acid 2,6-diisopropyl-phenyl ester, hydrochloride]",feed intake,[3],normal and comparable to that of vehicle control group
same,"behavior, feed consumption, organ weights, histopathology of different organs",[3],normal and comparable to that of the animals of the reference group
same,animals exhibiting clinical symptoms of toxicity,[3],None of the animals
same,body weight gain,[3],reduced in both the sexes
same,MCV vs Propofol injection (RC) [p<0.05],[3]; female animals,significantly decreased
same,granulocytes counts vs Propofol injection (RC) [p<0.05],[3]; female animals,significantly increased
same,reduced body weight gain compared to vehicle control,[3]; females,26.94%
same,reduced body weight gain compared to vehicle control,[3]; males,25.87%
same,"anesthetic effect, relative efficacy",[1]; High Dose,more effective
same,"anesthetic effect, relative efficacy",[1]; Low Dose,more effective
same,efficacy in inducing anesthesia based on time required to regain the righting reflex (conclusion),[1],relatively better efficacy
same,dose response relation (statistical analysis),[1],not statistically evident
same,solubility,[2],> 100 mg/mL
O=C(O)[C@@H]1C[C@@H](O)CN1 [hydroxyproline],solubility in deionized water,[11],~369 mg/mL
NCCCC[C@H](N)C(=O)O [lysine],solubility,[11],700 mg/mL
same,solubility in deionized water,[11],approximately 700 g/L
Glycine Ester of Cyclosporine A [Cyclosporine-G],performance in the model,[12]; DSS coupled with drug from day 1,didn't perform as expected
same,Mean DAI,"[12]; DSS coupled with drug from day 1, 10 mice per group",1.531
same,Mean DAI,"[13]; treatment started after colitis symptoms, mean of 10 mice",0.100
same,mice that died (out of 10),[13]; treatment study,none died
same,statistical result vs Cyclosporine reference drug,[13]; treatment study,statistically significant results
